Series [1] deals with CC14-induced acute liver injury model mice. Briefly: CC14-induced acute liver injury model: ALT, AST in serum, SOD, GSH-Px, MDA in liver homogenate. The class given is in vivo, Kunming mice. Particulars: for GSH-Px / MDA / SOD: liver homogenate, Mean ± SD; for GSH-Px / MDA / SOD / ALT / AST: 3 mg/kg by weight of PQQ, gavage once a day for 7 days; for ALT / AST: serum, 24 h after CC14, Mean ± SD. Here is the method:
Forty-eight male Kunming mice weighing 18-22 g were randomly divided into 4 groups: blank control group, CC14 model group, PQQ disodium salt group and PQQ betaine salt group, respectively, with 12 mice in each group.
On the 7th day after gavage for 1 h, the mice in CC14 model group, PQQ disodium salt group and PQQ betaine salt group were injected intraperitoneally with 0.25% CC14 peanut oil (10 mL/kg) once, resulting in acute liver injury models; while mice in the blank control group were injected intraperitoneally with peanut oil (10 mL/kg) once. Animals were sacrificed after orbital blood collection for 24 h. 0.5-1 mL blood was collected from the mouse orbit, serum was separated by static centrifugation, and ALT and AST levels in serum were measured by biochemical kits. Animals were sacrificed and livers were removed for preparing liver homogenate. Superoxide dismutase (SOD), glutathione peroxidase (GSH-Px) activity and malondialdehyde (MDA) content in liver homogenates were determined by biochemical kits.

Series [2] relates to scopolamine-induced memory disordered model mice. Kind of series: Morris water maze spatial probe test in scopolamine-induced memory disordered mice. The settings on record: for Latent period of crossing the original platform / Number of time of crossing platform: fifth day, Mean ± SD. Type of series: in vivo, Kunming mice. On the procedure:
(§1) Fifty Kunming mice, weighing 18-22 g, were randomly divided into five groups: blank control group, model group, low-dose PQQ betaine salt group (1.5 mg/kg), high-dose PQQ betaine salt group (3 mg/kg) and positive control group (donepezil, 3 mg/kg), respectively, 10 mice in each group. Wherein the PQQ betaine salt used is a crystalline Form A of pyrroloquinoline quinone betaine salt prepared according to the method of example 1.
(§2) The blank control group and the model group were administered with distilled water by gavage, the low-dose PQQ betaine salt group, the high-dose group and positive control group were administered with drugs by gavage respectively, once a day. Learning and memory training was carried out on the fifth day of administration and for 5 days in total; the model group, the low-dose PQQ betaine salt group, the high-dose group and the positive control group were intraperitoneally injected with 2 mg/kg of scopolamine 20 minutes earlier before training to obtain memory disordered models, while the blank control group was injected with a corresponding volume of saline. Morris water maze experiment were carried out for 5 days in total, wherein, a place navigation test was carried out in the first 4 days in order to observe and record the time required for the experimental animals to seek and climb onto the platform, in order to test the learning ability of mice. On the fifth day, a spatial probe test was carried out, during the test, the platform was removed, the time (the latent period) when crossing the original platform position for the first time was recorded as well as the number of time of traversing the original platform position for the animal, in order to test the spatial memory capacity of the animal. The latent period and the number of time of traversing platforms were used as evaluation indexes to detect the improvement of learning and memory in dementia model mice.

Series [3] is described as follows: Standing at room temperature (hygroscopicity observation). The settings on record: room temperature (25° C., about 50% humidity), a period of time. Type of series: physicochemical.
Series [4] in a line: Dynamic moisture sorption (DVS) hygroscopicity. Type of series: physicochemical. The settings on record: warehouse environment (humidity of 45%).
Series [5] relates to scopolamine-induced memory disordered model mice. Briefly: Morris water maze place navigation test in scopolamine-induced memory disordered mice. The class given is in vivo, Kunming mice. The settings on record: for Latent period, the first day / Latent period, the fourth day / Latent period, the second day / Latent period, the third day: time to climb onto the platform, Mean ± SD. Here is the method:
as §1, §2

Series [6] is described as follows: High humidity stability of the crystalline form (XRPD). The settings on record: humidity of 92.5%, 5 days and 10 days.
From the text: The appropriate amount of sample of the crystalline Form A of pyrroloquinoline quinone betaine salt is subjected to the humidity of 92.5%, and after 5 days and 10 days the samples were removed for XPRD testing (as shown in FIGS. 4 and 5) to examine the crystalline stability of the sample against humidity.
Series [7] in a line: Illumination stability of the crystalline form (XRPD). Particulars: light intensity of 4500 lux, 5 and 10 days.
From the text: An appropriate amount of sample of the crystalline Form A of pyrroloquinoline quinone betaine salt was subjected to a light intensity of 4500 lux, and after 5 and 10 days the sample was removed for XPRD testing (as shown in FIGS. 6 and 7) to examine the crystalline stability of the sample under illumination.
A short description of series [8]: Solubility of saturated aqueous solution by UV absorbance at 450 nm.
The nature of series [9]: High temperature stability of the crystalline form (XRPD). Particulars: oven at 60° C., 5 days and 10 days.
Method: An appropriate amount of sample of the crystalline Form A of Pyrroloquinoline Quinone Betaine Salt was placed in an oven at 60° C., and after 5 days and 10 days the sample was removed for XPRD testing (as shown in FIGS. 2 and 3) to examine the crystalline stability of the sample against temperature.
Where [10] appears, read: P<0.05 compared to the model group.

For the compound `O=C([O-])c1cc(C(=O)[O-])c2c(n1)C(=O)C(=O)c1cc(C(=O)O)[nH]c1-2.[Na+].[Na+]` [Disodium salt of PQQ, reference compound], in [1], the GSH-Px is on record as 93.4 ± 10.1^ΔΔ kU/g pro, the MDA was 2.71 ± 0.37^Δ nmol/L, the SOD is on record as 29.5 ± 4.9^Δ kU/g pro and the ALT was 126.5 ± 27.0^ΔΔ IU/L. In addition, in [1], the AST is recorded as 115.4 ± 22.7^Δ IU/L.

With `COc1cc2c(cc1OC)C(=O)C(CC1CCN(Cc3ccccc3)CC1)C2` (centres unmarked) [Donepezil, donepezil, reference compound], in series [2] (3 mg/kg), the “Latent period of crossing the original platform” value is 16.41 ± 7.60^ΔΔ s and the “Number of time of crossing platform” value is 2.90 ± 0.57^ΔΔ.

With `C[N+](C)(C)CCO.C[N+](C)(C)CCO.C[N+](C)(C)CCO.O=C(O)c1cc(C(=O)O)c2c(n1)C(=O)C(=O)c1cc(C(=O)O)[nH]c1-2` [tricholine salt of PQQ], in series [3], the “appearance after standing (hygroscopicity)” value is listed as “became a sticky solid”.

Take “pyrroloquinoline quinone betaine salt [PQQ betaine salt]”: the moisture sorption in series [4] worked out at 1.1%. Further, in [5] (1.5 mg/kg gavage once a day), the “Latent period, the first day” value amounted to 74.30 ± 17.80 s; the “Latent period, the fourth day” value turned out to be 50.80 ± 15.95 s; the “Latent period, the second day” value was found to be 62.90 ± 14.07 s; the “Latent period, the third day” value is 51.90 ± 16.43 s. Further, in series [5] (3 mg/kg gavage once a day), the “Latent period, the first day” value worked out at 74.70 ± 16.94 s; the “Latent period, the fourth day” value is reported as 29.50 ± 12.29^ΔΔ s; the “Latent period, the second day” value was determined as 62.30 ± 13.84 s; the “Latent period, the third day” value is 38.20 ± 14.01^Δ s. Also, the “latent period in place navigation compared with the model group” value in series [5] (P<0.05 or P<0.01 compared with the model group) is recorded as “significantly shortened”. Besides, in series [6], the “crystalline stability against humidity” value is recorded as “stable”. For the same compound, the “crystalline stability under illumination” value in series [7] is “stable”. Besides, in [8], the “Relative ratio (solubility)” value is listed as 1.50. The Solubility – broadly, the dissolved amount per volume that the medium holds – in [8] (saturated aqueous solution at 30° C., solubility of pyrroloquinoline quinone) was 14.50 mM. Besides, in series [2] (1.5 mg/kg), the “Latent period of crossing the original platform” value was 25.48 ± 12.19^ΔΔ s and the “Number of time of crossing platform” value is given as 2.20 ± 0.42^Δ. Besides, in series [2] (3 mg/kg), the “Latent period of crossing the original platform” value is recorded as 20.98 ± 9.44^ΔΔ s and the “Number of time of crossing platform” value was 2.10 ± 0.57^Δ. In series [2] (setting [10]), the “latent period in spatial search compared to the model group” value is “reduced” and the “number of time of crossing platform compared to the model group” value is “increased”. In addition, the “crystalline stability against temperature” value in series [9] is on record as “stable”. Besides, in series [1] (3 mg/kg, gavage, 7 days, overall conclusion), the “effect on CC14-induced acute liver injury in mice” value is given as “significantly improved”. In addition, in series [1], the GSH-Px was 93.5 ± 9.0^ΔΔ kU/g pro, the MDA is reported as 2.61 ± 0.37^ΔΔ nmol/L, the SOD is listed as 31.1 ± 4.5^ΔΔ kU/g pro and the ALT is listed as 110.1 ± 26.0^ΔΔ IU/L. The AST in series [1] was 110.0 ± 20.4^ΔΔ IU/L.

Values taken from patent US11414414B2, “Pyrroloquinoline quinone glycine betaine salt” (SHANGHAI XUANCHUANG BIOLOGICAL TECHNOLOGY CO., LTD., priority 2016, dated 2022).
